Reference: patent US20250206729A1, “DUAL RAF AND TUBULIN INHIBITORS AND METHODS OF USE THEREOF” (Deciphera Pharmaceuticals, LLC, priority 2023, published 2025)

Key:
[1] = target: T1, B-Raf kinase (SEQ ID NO: 1) (Homo sapiens, UniProt P15056); test: Biochemical assay for B-Raf (coupled pyruvate kinase/lactate dehydrogenase); conditions: 1 mM ATP; read-out: BRAF (inhibition of biochemical activity, IC50)
T1 construct: GST (N); purchased Sigma

HPAF-II cells = test: HPAF-II cell proliferation assay; format: cell-based; conditions: Homo sapiens, HPAF-II; 115 to 120 h incubation, resazurin; read-out: HPAF-II (inhibition of cell proliferation, IC50)
Procedure: (§1) HPAF-II cells (catalog #CRL-1997) are obtained from the American Type Culture Collect (ATCC, Manassas, VA). Briefly, cells are grown in Minimum Essential Media supplemented with 10% characterized fetal bovine serum (Invitrogen, Carlsbad, CA) and 1% Penicillin/Streptomycin/L-Glutamine at 37° C., 5% CO2, and 95% humidity. Cells are expanded until reaching 70-95% confluency at which point they are sub-cultured or harvested for assay use. A serial dilution of test compound is dispensed into a 384-well black clear bottom plate in triplicate. 750 cells are added per well in 50 μL complete growth medium in the 384-well plate. Plates are incubated for 115 to 120 h at 37° C., 5% CO2, and 95% humidity. At the end of the incubation, 40 μL of a […] solution of resazurin (Sigma, St. Louis, MO) in PBS is added to each well of the plate and plates are incubated for an additional 18 to 24 h at 37° C., 5% CO2, and 95% humidity. Plates are read on a Synergy2 or equivalent reader (Biotek, Winooski, VT) using an excitation of 540 nm and an emission of 600 nm. Data is analyzed using Prism software (Graphpad, San Diego, CA) to calculate IC50 values.

HCT-116 cells = test: HCT-116 cell proliferation assay; format: cell-based; conditions: Homo sapiens, HCT-116; 67 to 72 h incubation, resazurin; read-out: HCT-116 (inhibition of cell proliferation, IC50)
Procedure: HCT-116 cells (catalog #CCL-247) are obtained from the American Type Culture Collect (ATCC, Manassas, VA). Briefly, cells are grown in McCoy's 5A supplemented with 10% characterized fetal bovine serum (Invitrogen, Carlsbad, CA) and 1% Penicillin/Streptomycin/L-Glutamine at 37° C., 5% CO2, and 95% humidity. Cells are expanded until reaching 70-95% confluency at which point they are sub-cultured or harvested for assay use. A serial dilution of test compound is dispensed into a 384-well black clear bottom plate in triplicate. 375 cells are added per well in 50 μL complete growth medium in the 384-well plate. Plates are incubated for 67 to 72 h at 37° C., 5% CO2, and 95% humidity. At the end of the incubation, 40 μL of a […] solution of resazurin (Sigma, St. Louis, MO) in PBS is added to each well of the plate and plates are incubated for an additional 4 to 5 h at 37° C., 5% CO2, and 95% humidity. Plates are read on a Synergy2 or equivalent reader (Biotek, Winooski, VT) using an excitation of 540 nm and an emission of 600 nm. Data is analyzed using Prism software (Graphpad, San Diego, CA) to calculate IC50 values.

Pa16c cells = test: Pa16c cell proliferation assay; format: cell-based; conditions: 67 to 72 h incubation, resazurin; read-out: Pa16c (inhibition of cell proliferation, IC50)
Procedure: as §1, with “Pa16c” for “HPAF-II”, “cells” for “cells (catalog #CRL-1997)”, “Dr. Channing Der, University of North Carolina at Chapel Hill.” for “the American Type Culture Collect (ATCC, Manassas, VA).”, “Dulbecco's Modified Eagle Medium” for “Minimum Essential Media”, “67” for “115”, “72” for “120”

MiaPaca-2 cells = test: MiaPaca-2 cell proliferation assay; format: cell-based; conditions: Homo sapiens, MIA PaCa-2; 67-72 h incubation, resazurin; read-out: MiaPaca-2 (inhibition of cell proliferation, IC50)
Procedure: Miapaca-2 cells (catalog #CRL-1420) are obtained from the American Type Culture Collect (ATTC, Manassas, VA). Briefly, cells were grown in DMEM supplemented with 10% characterized fetal bovine serum (Invitrogen, Carlsbad, CA), 2.5% New Zealand sourced horse serum and 1% Penicillin/Streptomycin/L-Glutamine at 37° C., 5% CO2, and 95% humidity. Cells are expanded until reaching 70-95% confluency at which point they are sub-cultured or harvested for assay use. A serial dilution of test compound is dispensed into a 384-well black clear bottom plate in triplicate. Seven hundred fifty cells are added per well in 50 μL complete growth medium in the 384-well plate. Plates are incubated for 67-72 h at 37° C., 5% CO2, and 95% humidity. At the end of the incubation, 10 μL of a 440 μM solution of resazurin (Sigma, St. Louis, MO) in PBS is added to each well of the plate and plates are incubated for an additional 5-6 h at 37° C., 5% CO2, and 95% humidity. Plates are read on a Synergy2 or equivalent reader (Biotek, Winooski VT) using an excitation of 540 nm and an emission of 600 nm. Data is analyzed using Prism software (GraphPad, San Diego, CA) to calculate IC50 values.

[2] = target: T2, C-Raf kinase (SEQ ID NO: 2) (Homo sapiens, UniProt P04049, Y340D/Y341D); test: Biochemical assay for C-Raf (coupled pyruvate kinase/lactate dehydrogenase); conditions: 1 mM ATP; read-out: CRAF (inhibition of biochemical activity, IC50)
T2 construct: C-Raf residues 306-end; Y340D, Y341D with N-; GST (N); purchased Sigma
T2 sequence (P04049 307-648 Y340D/Y341D): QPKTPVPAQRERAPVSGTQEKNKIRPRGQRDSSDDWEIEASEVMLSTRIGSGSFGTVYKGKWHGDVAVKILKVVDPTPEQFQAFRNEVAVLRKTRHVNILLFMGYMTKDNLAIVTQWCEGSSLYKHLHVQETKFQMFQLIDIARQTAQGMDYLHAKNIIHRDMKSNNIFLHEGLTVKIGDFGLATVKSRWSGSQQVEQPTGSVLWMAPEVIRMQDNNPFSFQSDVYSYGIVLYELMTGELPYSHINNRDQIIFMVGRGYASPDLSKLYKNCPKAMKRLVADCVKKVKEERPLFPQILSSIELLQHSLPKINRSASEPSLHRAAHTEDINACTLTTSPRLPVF

T1 sequence (P15056 416-766): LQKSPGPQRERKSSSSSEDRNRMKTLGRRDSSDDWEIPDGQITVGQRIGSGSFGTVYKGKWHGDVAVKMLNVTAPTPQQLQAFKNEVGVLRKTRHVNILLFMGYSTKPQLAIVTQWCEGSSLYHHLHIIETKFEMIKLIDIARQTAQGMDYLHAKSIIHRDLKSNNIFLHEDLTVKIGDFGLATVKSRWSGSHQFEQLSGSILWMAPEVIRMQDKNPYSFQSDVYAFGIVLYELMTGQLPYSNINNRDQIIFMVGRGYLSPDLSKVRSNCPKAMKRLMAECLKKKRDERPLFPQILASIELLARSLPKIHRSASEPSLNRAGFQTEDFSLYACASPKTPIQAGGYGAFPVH

Compound | IC50 [1] [nM] | IC50 (HPAF-II cells) [nM] | IC50 (HCT-116 cells) [nM] | IC50 (Pa16c cells) [nM] | IC50 (MiaPaca-2 cells) [nM] | IC50 [2] [nM]
Cc1ccc(NC(=O)c2cc(C(F)(F)F)cnn2)cc1-c1cnnc(N2CCOCC2)c1 [Example 21, N-(4-methyl-3-(6-morpholinopyridazin-4-yl)phenyl)-5-(trifluoromethyl)pyridazine-3-carboxamide] | 500 to 1000 | 500 to 1000 | 500 to 1000 | 1000 to 10000 | 500 to 1000 | 500 to 1000
Cc1ccc(NC(=O)c2cc(C(F)(F)F)cnn2)cc1-c1cc(N2CCOCC2)cnn1 [Example 22] | 1000 to 10000 | 1000 to 10000 | 1000 to 10000 | 1000 to 10000 | 1000 to 10000 | 1000 to 10000
Cc1ccc(NC(=O)c2cc(C(C)(C)F)cnn2)cc1-c1cc(N[C@H](C)CO)nc(N2CCOCC2)c1 [Example 23] | < 100 | < 100 | < 100 | 100 to 500 | < 100 | < 100
Cc1ccc(NC(=O)c2cc(C3CC3)cnn2)cc1-c1cncc(N2CCOCC2)c1 [Example 24] | 100 to 500 | 100 to 500 | 100 to 500 | 100 to 500 | 100 to 500 | < 100
Cc1ccc(NC(=O)c2cc(C(F)(F)F)cnn2)cc1-c1cc(N2CCOCC2)ncn1 [Example 25] | 500 to 1000 | 100 to 500 | 100 to 500 | 1000 to 10000 | 100 to 500 | 500 to 1000
Cc1ccc(NC(=O)c2cc(C(F)(F)F)cnn2)cc1-c1ccnc(N2CCOC(C(F)F)C2)c1 (stereo not drawn) [Example 26] | 100 to 500 | 100 to 500 | 100 to 500 | 500 to 1000 | 100 to 500 | 100 to 500
Cc1ccc(NC(=O)c2cc(C(F)(F)F)cnn2)cc1-c1cc(N[C@H](C)CO)nc(N2CCOCC2)n1 [Example 28] | 100 to 500 | < 100 | 100 to 500 | < 100 | < 100 | 100 to 500
Cc1ccc(NC(=O)c2cc(C(F)(F)F)cnn2)cc1-c1cc(OCCO)nc(N2CCOCC2)n1 [Example 30] | 500 to 1000 | 100 to 500 | 100 to 500 | 100 to 500 | 100 to 500 | 100 to 500
Cc1ccc(NC(=O)c2cc(C3CC3)cnn2)cc1-c1ccnc(N2CCOCC2)n1 [Example 31] | 1000 to 10000 | 100 to 500 | 100 to 500 | < 100 | 100 to 500 | 500 to 1000
Cc1ccc(NC(=O)c2cc(Cl)cnn2)cc1-c1cc(OCCO)nc(N2CCOCC2)c1 [Example 32] | 500 to 1000 | 1000 to 10000 | 100 to 500 | 500 to 1000 | 1000 to 10000 | 100 to 500
Cc1ccc(NC(=O)c2cc(C(F)(F)F)cnn2)cc1-c1cc(N2CCOCC2)nc(N[C@H](C)CO)n1 [Example 33] | 100 to 500 | 100 to 500 | 100 to 500 | 100 to 500 | 100 to 500 | < 100
Cc1ccc(NC(=O)c2cc(C3CC3)cnn2)cc1-c1cc(N2CCOCC2)nc(N[C@H](C)CO)n1 [Example 35] | < 100 | 100 to 500 | 100 to 500 | 100 to 500 | 100 to 500 | < 100
Cc1ccc(NC(=O)c2cc(C3CC3)cnn2)cc1-c1cc(N[C@H](C)CO)nc(N2CCOCC2)n1 [Example 36] | 100 to 500 | 100 to 500 | 100 to 500 | 500 to 1000 | 100 to 500 | 100 to 500
Cc1ccc(NC(=O)c2cnc(Cl)nc2)cc1-c1cc(N[C@H](C)CO)nc(N2CCOCC2)c1 [Example 38] | 1000 to 10000 | 1000 to 10000 | 1000 to 10000 | 1000 to 10000 | 1000 to 10000 | 500 to 1000
Cc1ccc(NC(=O)c2cc(C(C)C)cnn2)cc1-c1cc(OCCO)nc(N2CCOCC2)c1 [Example 39] | < 100 | 100 to 500 | < 100 | 100 to 500 | 100 to 500 | < 100
Cc1ccc(NC(=O)c2cc(C3CC3)cnn2)cc1-c1cc(N2CCOCC2)ncn1 [Example 40] | 100 to 500 | 500 to 1000 | 500 to 1000 | 1000 to 10000 | 1000 to 10000 | 500 to 1000
Cc1ccc(NC(=O)c2cc(C(F)(F)F)cnn2)cc1-c1cccc(N2CCOCC2)c1 [Example 41] | 100 to 500 | < 100 | 100 to 500 | 100 to 500 | 100 to 500 | < 100
Cc1cc(-c2cc(NC(=O)c3cc(C4CCC4)cnn3)ccc2C)cc(N2CCOCC2)n1 [Example 42] | < 100 | 100 to 500 | 100 to 500 | 100 to 500 | 100 to 500 | < 100
Cc1ccc(NC(=O)c2cc(C(F)(F)F)cnn2)cc1-c1nc(OCCO)cc(N2CCOCC2)n1 [Example 43] | 1000 to 10000 | < 100 | 100 to 500 | 100 to 500 | < 100 | 1000 to 10000
Cc1ccc(NC(=O)c2cc(C3CC3)cnn2)cc1-c1nc(N[C@H](C)CO)cc(N2CCOCC2)n1 [Example 45] | 1000 to 10000 | 500 to 1000 | 500 to 1000 | 1000 to 10000 | 500 to 1000 | 500 to 1000
Cc1ccc(NC(=O)c2cc(C3CC3)cnn2)cc1-c1cccc(N2CCOCC2)c1 [Example 46] | 100 to 500 | 100 to 500 | 100 to 500 | 100 to 500 | 500 to 1000 | < 100
Cc1ccc(NC(=O)c2cncc(C(F)(F)F)c2)cc1-c1cc(OCCO)nc(N2CCOCC2)c1 [Example 47] | < 100 | 500 to 1000 | 100 to 500 | 1000 to 10000 | 500 to 1000 | < 100
